Values of other authors as cited in US10300101B2, “Methods and compositions for enhancing or maintaining fertility” (Quality IP Holdings, LLC, priority 2012, dated 2019).

How the values were obtained:
[1] = test system: hGH levels; settings: subcutaneous injection of 0.06 IU in hGH deficient subjects
[2] = test system: hGH levels

Compound	mean levels of hGH reached [1]	elevation of serum hGH levels ([2]; 30 g intravenous, in males)	increase in hGH levels ([2]; intravenous infusion of 183 mg/kg body weight in females)
hGH: human growth hormone given by subcutaneous injection to hGH deficient subjects	0.4 ng/mL		
N=C(N)NCCC[C@H](N)C(=O)O [arginine]		8.6 fold	> 20 fold
